Tests used:
trypsin [1] = target: T1, trypsin (Sus scrofa, UniProt P00761); assay: Trypsin activity assay (TAME hydrolysis, absorption at 247 nm); type: biochemical; conditions: trypsin 20 nM, TAME 1 mM
T1 construct: purchased Wako; host or cells: porcine pancreas (natural source)
Text: Trypsin hydrolyses peptide linkages at the carboxyl side of lysine and arginine residues.[29] As already described in Fig. 2a, this protease activity is inhibited by BA.[10] Considering the exceptionally high affinity of Glue29–BA for trypsin, we expected that this BA-appended molecular glue might be the best inhibitor among those listed in Fig. 1. However, as observed by dynamic light scattering (DLS; Fig. S12 ^†), trypsin/Glue29–BA, in contrast with other complexes such as trypsin/Glue10–BA and trypsin/Glue10–Ph, tends to form large aggregates (>200 nm), most likely due to the formation of physical crosslinks between its excessively long glue moiety and trypsin. […] We presume that the poor conformational flexibility of the in-chain Gu^+ units in the glue moiety hinders the ability of the conjugated BA terminus to properly block the substrate-binding site of trypsin. […]
To a Tris–HCl buffer (50 mM Tris–HCl, 10 mM CaCl2, pH 8.0) solution of trypsin (20 nM) was added a Tris–HCl buffer solution of TEG–BA, and the mixture was incubated at 25 °C for 1 min. […] The trypsin activity was determined using pseudo-first order reaction kinetics and normalized to that of untreated trypsin. The trypsin activities in the presence of Gluen–BA, ^mGluen–BA and Gluen–Ph were likewise evaluated.

trypsin [2] = target: T1, trypsin; assay: Circular dichroism (CD) spectral titration of trypsin, Hill equation fit; type: binding; conditions: trypsin 5 μM, CD at 237 nm, 25 °C, Tris–HCl buffer (50 mM Tris–HCl, 10 mM CaCl2, pH 8.0), read-out: association constant (K assoc) with trypsin (converted)
Text: We first investigated the effect of conjugation of molecular glues to BA on the binding affinity for trypsin. Trypsin is known to alter its conformation upon interaction with metal ions,[24] polymers[25] and proteins,[26] resulting in circular dichroism (CD) spectral changes. Upon mixing with Glue10–BA, trypsin also changed its CD spectrum. […] According to the reported method,[27],[28] we estimated the association constant (K assoc) of Glue10–BA with trypsin to be 5.5 × 10^5 M^–1 by fitting the fractions of bound trypsin (Fig. 3, red) to the Hill equation.[27],[28] […]
Fig. 3 Circular dichroism (CD) spectral titration profiles of trypsin (5 μM) at 237 nm with molecular glues Glue29–BA (brown; 0–2.5 μM), Glue10–BA (red; 0–7 μM), Glue10–Ph (green; 0–12 μM) and ^mGlue27–BA (purple; 0–50 μM), together with reference TEG–BA (blue; 0–200 μM), at 25 °C in Tris–HCl buffer (50 mM Tris–HCl, 10 mM CaCl2, pH 8.0). The fractions of bound trypsin were calculated from (I – I 0)/(I sat – I 0), where I 0, I and I sat represent the CD intensities before titration, observed with titrants and at the saturation point, respectively. […]
The association constants (K assoc) were calculated based on the Hill equation by plotting the fractions of bound trypsin versus the concentrations of a titrant. […]

T1 sequence (P00761 9-231): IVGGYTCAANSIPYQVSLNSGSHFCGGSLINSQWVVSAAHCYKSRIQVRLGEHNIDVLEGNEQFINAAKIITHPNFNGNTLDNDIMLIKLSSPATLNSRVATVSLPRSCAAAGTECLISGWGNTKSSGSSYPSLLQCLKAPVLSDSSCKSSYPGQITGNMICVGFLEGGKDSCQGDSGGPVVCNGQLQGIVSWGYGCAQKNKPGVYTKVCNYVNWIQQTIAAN

- inhibition of TAME hydrolysis by trypsin at 10 μM (trypsin [1]; 10 μM compound): did not exhibit detectable inhibition
- IC50 (trypsin [1]; 25 °C, Tris–HCl buffer pH 8.0, read-out: half-maximal inhibitory concentration (IC50)): 79 µM
- Kd (trypsin [2]): 62.5 µM
Compound: [N-]=[N+]=NCCOCCOCCOCCNC(=O)CCCC(=O)Nc1ccc(C(=N)N)cc1 [TEG–BA]
